According to patent US20210290597A1, “METHOD OF TREATING A CONDITION ASSOCIATED WITH NEURODEGENERATION USING INHIBITORS OF OAT3” (Neuropore Therapies, Inc., priority 2018, published 2021):

Experiments:
[1] = molecular target: T1, human transporter OATP1B3 (Homo sapiens, UniProt Q9NPD5); assay: In vitro ion transport assay 1, OATP1B3; type: cell-based; settings: probe substrate 2 μM [3H]-CCK-8
T1 construct: expressed in transfected cells; host or cells: MDCK-II
T1 sequence (Q9NPD5 1-702): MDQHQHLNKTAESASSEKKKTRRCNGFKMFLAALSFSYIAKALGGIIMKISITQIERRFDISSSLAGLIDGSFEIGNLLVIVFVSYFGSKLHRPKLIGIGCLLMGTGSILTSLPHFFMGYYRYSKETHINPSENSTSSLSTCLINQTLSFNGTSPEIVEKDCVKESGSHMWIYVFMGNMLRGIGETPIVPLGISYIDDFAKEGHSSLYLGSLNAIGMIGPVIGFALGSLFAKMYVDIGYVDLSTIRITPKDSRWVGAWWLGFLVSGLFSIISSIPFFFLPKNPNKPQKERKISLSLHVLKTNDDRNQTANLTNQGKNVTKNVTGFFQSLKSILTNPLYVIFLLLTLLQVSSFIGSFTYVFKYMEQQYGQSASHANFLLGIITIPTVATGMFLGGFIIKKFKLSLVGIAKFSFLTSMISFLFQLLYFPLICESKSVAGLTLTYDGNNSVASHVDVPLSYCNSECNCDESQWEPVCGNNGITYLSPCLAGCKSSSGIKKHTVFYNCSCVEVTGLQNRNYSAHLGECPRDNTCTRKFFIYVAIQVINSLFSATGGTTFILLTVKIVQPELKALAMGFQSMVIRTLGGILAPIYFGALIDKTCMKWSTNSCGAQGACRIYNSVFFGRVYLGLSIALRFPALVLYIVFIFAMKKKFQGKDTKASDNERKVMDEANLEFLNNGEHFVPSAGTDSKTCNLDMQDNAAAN
Description: (§1) Compound 1 was studied in the concentration range of 0.1-100 μM for its potency against transport mediated by various transporter proteins. [table]

[2] = tested on: Translocator Protein (18 kDa) (TSPO); assay: TSPO immunofluorescence in cortex, L61 ASYN transgenic mice, 3 month study; type: in vivo; settings: 5 and 10 mg/kg i.p. daily, 3 months
Description: Briefly, Compound 1 was injected into L61 ASYN transgenic mice and non-transgenic control mice (i.p., once daily) at doses of 5 and 10 mg/kg for 3 months (79 total mice, n=14-17 mice per treatment group). The vehicle control consisted of a solution containing 5% DMSO+20% Cremphor EL+0.9% normal saline. The baseline grip strength of mice was evaluated prior to starting treatments for the 3 month study, and then re-evaluated following 70 days of treatment with vehicle or Compound 1 (5 or 10 mg/kg, i.p. injection daily).
Neuroinflammation is associated with increased expression of the 18-kDa translocator protein (TSPO), which is a marker for inflammation and is present on the mitochondria of activated microglia, astroglia and macrophages (Crawshaw and Robertson 2017). The effects of Compound 1 on the levels of Translocator Protein (18 kDa) (TSPO) were assessed in both L61 ASYN transgenic and non-transgenic mice in the aforementioned 3 month administration study. At the end of the study, the mice were sacrificed, and immunofluoresence (IF) detection of TSPO were assessed in the harvested brain tissues.
The harvested brain tissues were fixed (drop fixed in 4% paraformaldehyde), sectioned using a vibratome, and representative sections were assessed for TSPO with standard immunofluorescence (IF) staining. […]

[3] = tested on: Translocator Protein (18 kDa) (TSPO); assay: TSPO immunofluorescence, L41 APP transgenic mice; type: in vivo; settings: 5 mg/kg daily i.p.
Description: Neuroinflammation is associated with increased expression of the 18-kDa translocator protein (TSPO), which is present on the mitochondria of activated microglia, astroglia and macrophages (Crawshaw and Robertson 2017). The effects of Compound 1 on TSPO expression were assessed in both L41 APP transgenic and non-transgenic mice in a 1 month administration study. L41 APP transgenic mice (36 total mice, n=8-11 mice per treatment group) were injected (i.p.) daily with 5 mg/kg of Compound 1 or a vehicle control (5% DMSO+20% Cremphor EL+0.9% normal saline) for […]. Non-transgenic mice (18 total mice, n=8-11 mice per treatment group) were used as a control and were injected daily (i.p.) with 10 mg/kg of Compound 1 (data not shown) or a vehicle control (5% DMSO+20% Cremphor EL+0.9% normal saline) for 1 month. After 30 days, the mice were sacrificed, and immunofluoresence (IF) detection of TSPO were assessed in the harvested brain tissues.
The harvested brain tissues were drop fixed using 4% PFA and sectioned on a vibratome, and representative sections corresponding to the neuropil of cortex were assessed for TSPO with standard immunofluorescence (IF) staining.

human transporter MATE1 = molecular target: T2, human transporter MATE1 (Homo sapiens, UniProt Q96FL8); assay: In vitro ion transport assay 1, MATE1; type: cell-based; settings: probe substrate 10 μM [14C]-metformin
T2 construct: expressed in transfected cells; host or cells: MDCK-II
T2 sequence (Q96FL8 1-570): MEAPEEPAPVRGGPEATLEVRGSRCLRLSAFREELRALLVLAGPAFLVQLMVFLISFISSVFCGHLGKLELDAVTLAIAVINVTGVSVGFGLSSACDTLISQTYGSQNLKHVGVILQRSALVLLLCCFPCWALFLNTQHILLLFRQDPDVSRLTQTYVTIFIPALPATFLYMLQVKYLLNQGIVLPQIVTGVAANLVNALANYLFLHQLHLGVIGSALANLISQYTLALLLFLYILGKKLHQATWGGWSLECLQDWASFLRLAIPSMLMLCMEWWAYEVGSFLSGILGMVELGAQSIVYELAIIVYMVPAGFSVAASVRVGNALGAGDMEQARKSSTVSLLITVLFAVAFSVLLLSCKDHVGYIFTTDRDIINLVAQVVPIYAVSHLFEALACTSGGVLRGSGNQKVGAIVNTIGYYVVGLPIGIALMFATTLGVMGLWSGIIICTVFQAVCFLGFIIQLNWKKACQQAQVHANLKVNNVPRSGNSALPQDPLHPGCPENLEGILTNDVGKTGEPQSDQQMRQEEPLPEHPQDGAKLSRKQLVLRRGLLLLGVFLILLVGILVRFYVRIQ
Description: as §1

IC50 [1]: 51.2 µM
IC50 (human transporter MATE1): 30.3 µM
SMILES: O=S(=O)(c1ccc(-n2cn[nH]c2=S)cc1)c1ccc(Cl)c(C(F)(F)F)c1 [Compound 1, 4-(4-((4-chloro-3-(trifluoromethyl)phenyl)sulfonyl)phenyl)-2,4-dihydro-3H-1,2,4-triazole-3-thione]
levels of TSPO in cortex vs vehicle control [2]: significantly decreased
cortical TSPO level vs vehicle-treated Line 41 mice [3]: reduces the TSPO level in a statistically significant manner
